Laboratory results from patent publication US11697646B2, “Triazole N-linked carbamoyl cyclohexyl acids as LPA antagonists” (BRISTOL-MYERS SQUIBB COMPANY, priority 2017, dated 2023).

Target: T1, human LPA1 (Homo sapiens, UniProt Q92633)
T1 construct: expressed in transfected cells; host or cells: Chinese hamster ovary (CHO) cells
Test: LPA1 functional antagonist assay (calcium flux)
Format: cell-based
Details: CHO cells overexpressing human LPA1; calcium flux induced by 10 nM LPA; read-out: hLPA1 IC50
Description: The effectiveness of compounds of the present invention as LPA1 inhibitors can be determined in an LPA1 functional antagonist assay as follows:
The cells were then equilibrated to room temperature for 30 minutes before the assay. […] IC50 values were determined by fitting data to a 4-parameter logistic equation (GraphPad Prism, San Diego Calif.).

T1 sequence (Q92633 whole entry): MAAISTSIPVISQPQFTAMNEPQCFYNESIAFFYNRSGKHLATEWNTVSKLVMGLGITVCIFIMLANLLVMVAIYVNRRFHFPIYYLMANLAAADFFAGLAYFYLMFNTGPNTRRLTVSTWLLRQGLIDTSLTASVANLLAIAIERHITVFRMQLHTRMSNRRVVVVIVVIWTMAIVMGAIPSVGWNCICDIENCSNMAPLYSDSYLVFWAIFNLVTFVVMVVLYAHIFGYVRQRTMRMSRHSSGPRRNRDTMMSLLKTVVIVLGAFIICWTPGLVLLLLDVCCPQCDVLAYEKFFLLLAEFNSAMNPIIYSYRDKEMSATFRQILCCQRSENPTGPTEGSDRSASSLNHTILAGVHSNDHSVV

Row | SMILES | IC50 [nM]
1 | Cc1nc(-c2nnn(C)c2CNC(=O)OCc2ccccc2)ccc1O[C@@H]1CCC[C@@](F)(C(=O)O)C1 (single isomer, unassigned) [Example 210] | 5
2 | Cc1nc(-c2nnn(C)c2NC(=O)OC2CCCCC2)ccc1O[C@H]1CCC[C@H](C(=O)O)C1 [Example 141, (1S,3S)-3-((6-(5-(((cyclohexyloxy)carbonyl)amino)-1-methyl-1H-1,2,3-triazol-4-yl)-2-methylpyridin-3-yl)oxy)cyclohexane-1-carboxylic acid] | 78
3 | Cc1nc(-c2nnn(C)c2CNS(=O)(=O)NCC2CCCC2)ccc1O[C@H]1CCC[C@H](C(=O)O)C1 [Example 226, (1S,3S)-3-((6-(5-(((N-(cyclopentylmethyl)sulfamoyl)amino)methyl)-1-methyl-1H-1,2,3-triazol-4-yl)-2-methylpyridin-3-yl)oxy)cyclohexane-1-carboxylic acid] | 1100
4 | Cc1nc(-c2nnn(C)c2NC(=O)OCCC(C)C)ccc1O[C@H]1CCC[C@H](C(=O)O)C1 [Example 77, (1S,3S)-3-((6-(5-(((isopentyloxy)carbonyl)amino)-1-methyl-1H-1,2,3-triazol-4-yl)-2-methylpyridin-3-yl)oxy)cyclohexane-1-carboxylic acid] | 20
5 | Cc1nc(-c2nnn(C)c2NC(=O)OC(C)C)ccc1O[C@H]1CCC[C@H](C(=O)O)C1 [Example 70, (1S,3S)-3-((6-(5-((isopropoxycarbonyl)amino)-1-methyl-1H-1,2,3-triazol-4-yl)-2-methylpyridin-3-yl)oxy)cyclohexane-1-carboxylic acid] | 129
6 | CCCCOC(=O)Nc1c(-c2ccc(O[C@H]3CCC[C@H](C(=O)O)C3)c(C)n2)nnn1C [Example 222, (1S,3S)-3-((6-(5-((butoxycarbonyl)amino)-1-methyl-1H-1,2,3-triazol-4-yl)-2-methylpyridin-3-yl)oxy)cyclohexane-1-carboxylic acid] | 21
7 | Cn1nnc(-c2ccc(O[C@H]3CCC[C@H](C(=O)O)C3)cn2)c1NC(=O)OCC1CC1 [Example 83, (1S,3S)-3-((6-(5-(((cyclopropyl-methoxy)carbonyl)amino)-1-methyl-1H-1,2,3-triazol-4-yl)pyridin-3-yl)oxy)cyclohexane-1-carboxylic acid] | 178
8 | CC(COC(=O)NCc1c(-c2ccc(O[C@H]3CCC[C@H](C(=O)O)C3)cn2)nnn1C)CC(F)(F)F (mixture of isomers) [Example 31, (1S,3S)-3-((6-(1-methyl-5-((((4,4,4-trifluoro-2-methylbutoxy)carbonyl)amino)methyl)-1H-1,2,3-triazol-4-yl)pyridin-3-yl)oxy)cyclohexanecarboxylic acid] | 102
9 | CCC1(COC(=O)NCc2c(-c3ccc(O[C@H]4CCC[C@H](C(=O)O)C4)cn3)nnn2C)CC1 [Example 51, (1S,3S)-3-((6-(5-(((((1-ethylcyclopropyl)methoxy)carbonyl)amino)methyl)-1-methyl-1H-1,2,3-triazol-4-yl)pyridin-3-yl)oxy)cyclohexane-1-carboxylic acid] | 62
10 | CCc1nc(-c2nnn(C)c2CNC(=O)NCc2ccccc2)ccc1O[C@H]1CCC[C@H](C(=O)O)C1 [Example 153, (1S,3S)-3-((6-(5-((3-benzyl-ureido)methyl)-1-methyl-1H-1,2,3-triazol-4-yl)-2-ethylpyridin-3-yl)oxy)cyclohexane-1-carboxylic acid] | 107
11 | CCCOC(=O)NCc1c(-c2ccc(O[C@H]3CCC[C@H](C(=O)O)C3)c(C)n2)nnn1C [Example 24, (1S,3S)-3-((2-methyl-6-(1-methyl-5-(((propoxycarbonyl)amino)methyl)-1H-1,2,3-triazol-4-yl)pyridin-3-yl)oxy)cyclohexane-1-carboxylic acid] | 160
12 | CCCCCOC(=O)Nc1c(-c2ccc(O[C@H]3CCC[C@H](C(=O)O)C3)c(C)n2)nnn1C [Example 71, (1S,3S)-3-((2-methyl-6-(1-methyl-5-(((pentyloxy)carbonyl)amino)-1H-1,2,3-triazol-4-yl)pyridin-3-yl)oxy)cyclohexane-1-carboxylic acid] | 6
13 | CCCC(NC(=O)NCc1c(-c2ccc(O[C@H]3CCC[C@H](C(=O)O)C3)c(C)n2)nnn1C)c1ccccc1 (mixture of isomers) [Example 119, (1S,3S)-3-((2-methyl-6-(1-methyl-5-((3-(1-phenylbutyl)ureido)methyl)-1H-1,2,3-triazol-4-yl)pyridin-3-yl)oxy)cyclo-hexane-1-carboxylic acid] | 187
14 | Cc1nc(-c2nnn(C)c2NC(=O)OCc2ccccc2)ccc1O[C@H]1CCC[C@H](C(=O)O)C1 [Example 80, (1S,3S)-3-((6-(5-(((benzyloxy)carbonyl)amino)-1-methyl-1H-1,2,3-triazol-4-yl)-2-methylpyridin-3-yl)oxy)cyclohexane-1-carboxylic acid] | 37
15 | CCCC(C)OC(=O)Nc1c(-c2ccc(O[C@H]3CCC[C@H](C(=O)O)C3)c(C)n2)nnn1C (stereo partly drawn) [Example 140, (1S,3S)-3-((2-methyl-6-(1-methyl-5-(((pentan-2-yloxy)carbonyl)amino)-1H-1,2,3-triazol-4-yl)pyridin-3-yl)oxy)cyclohexane-1-carboxylic acid] | 29
16 | Cc1nc(-c2nnn(C)c2CNC(=O)OCC(C)(C)C)ccc1O[C@H]1CCC[C@H](C(=O)O)C1 [Example 22, (1S,3S)-3-((2-methyl-6-(1-methyl-5-((((neopentyloxy)carbonyl)amino)methyl)-1H-1,2,3-triazol-4-yl)pyridin-3-yl)oxy)cyclohexane-1-carboxylic acid] | 35
17 | Cc1nc(-c2nnn(C)c2NC(=O)OC2CC3(CC3)C2)ccc1O[C@H]1CCC[C@H](C(=O)O)C1 [Example 225, (1S,3S)-3-((2-methyl-6-(1-methyl-5-(((spiro[2.3]hexan-5-yloxy)carbonyl)amino)-1H-1,2,3-triazol-4-yl)pyridin-3-yl)oxy)cyclohexane-1-carboxylic acid] | 181
18 | Cc1nc(-c2nnn(C)c2CNC(=O)OCC2CC2)ccc1O[C@H]1CCC[C@H](C(=O)O)C1 [Example 7, (1S,3S)-3-((6-(5-((((cyclopropylmethoxy)carbonyl)amino)methyl)-1-methyl-1H-1,2,3-triazol-4-yl)-2-methylpyridin-3-yl)oxy)cyclohexane-1-carboxylic acid] | 47
19 | Cn1nnc(-c2ccc(O[C@H]3CCC[C@H](C(=O)O)C3)cn2)c1CNC(=O)OC1CCCC1 [Example 6, (1S,3S)-3-((6-(5-((((cyclopentyloxy)carbonyl)amino)methyl)-1-methyl-1H-1,2,3-triazol-4-yl)pyridin-3-yl)oxy)cyclohexane-1-carboxylic acid] | 84
20 | C[C@@H](OC(=O)Nc1c(-c2ccc(O[C@H]3CCC[C@H](C(=O)O)C3)cn2)nnn1C)C1CC1 [Example 82, (1S,3S)-3-((6-(5-((((R)-1-cyclopropyl-ethoxy)carbonyl)amino)-1-methyl-1H-1,2,3-triazol-4-yl)pyridin-3-yl)oxy)cyclohexane-1-carboxylic acid] | 79
21 | Cc1nc(-c2nnn(C)c2CNC(=O)OCC2(C)CC2)c(F)cc1O[C@H]1CCC[C@H](C(=O)O)C1 [Example 215, (1S,3S)-3-((5-fluoro-2-methyl-6-(1-methyl-5-(((((1-methylcyclopropyl)methoxy)carbonyl)amino)methyl)-1H-1,2,3-triazol-4-yl)pyridin-3-yl)oxy)cyclohexane-1-carboxylic acid] | 112
22 | CCCOC(=O)Nc1c(-c2ccc(O[C@H]3CCC[C@H](C(=O)O)C3)c(C)n2)nnn1C [Example 68, (1S,3S)-3-((2-methyl-6-(1-methyl-5-((propoxycarbonyl)amino)-1H-1,2,3-triazol-4-yl)pyridin-3-yl)oxy)cyclohexane-1-carboxylic acid] | 89
23 | CCc1nc(-c2nnn(C)c2CNC(=O)OCc2ccccc2)ccc1O[C@H]1CCC[C@H](C(=O)O)C1 [Example 43, (1S,3S)-3-((6-(5-((((benzyloxy)carbonyl)amino)methyl)-1-methyl-1H-1,2,3-triazol-4-yl)-2-ethylpyridin-3-yl)oxy)cyclohexne-1-carboxylic acid] | 8
24 | CCc1nc(-c2nnn(C)c2CNC(=O)N(C)Cc2ccccc2)ccc1O[C@H]1CCC[C@H](C(=O)O)C1 [Example 149, (1S,3S)-3-((6-(5-((3-benzyl-3-methylureido)methyl)-1-methyl-1H-1,2,3-triazol-4-yl)-2-ethyl-pyridin-3-yl)oxy)cyclohexane-1-carboxylic acid] | 143
25 | Cc1nc(-c2nnn(C)c2CNC(=O)N(C)CC(C)C)ccc1O[C@H]1CCC[C@H](C(=O)O)C1 [Example 128, (1S,3S)-3-((6-(5-((3-isobutyl-3-methylureido)methyl)-1-methyl-1H-1,2,3-triazol-4-yl)-2-methylpyridin-3-yl)oxy)cyclohexane-1-carboxylic acid] | 273
26 | Cc1nc(-c2nnn(C)c2CNC(=O)N(C)Cc2ccccc2)ccc1O[C@H]1CCC[C@H](C(=O)O)C1 [Example 109, (1S,3S)-3-((6-(5-((3-benzyl-3-methyl-ureido)methyl)-1-methyl-1H-1,2,3-triazol-4-yl)-2-methylpyridin-3-yl)oxy)cyclohexanecarboxylic acid] | 85
27 | COCCCOC(=O)NCc1c(-c2ccc(O[C@H]3CCC[C@H](C(=O)O)C3)c(C)n2)nnn1C [Example 53, (1S,3S)-3-((6-(5-((((3-methoxypropoxy)carbonyl)amino)methyl)-1-methyl-1H-1,2,3-triazol-4-yl)-2-methylpyridin-3-yl)oxy)cyclohexane-1-carboxylic acid] | 342

Same assay, conditions: human LPA1 functional antagonist assay; read-out: hLPA1 IC50

Row | SMILES | IC50 [nM]
28 | Cc1nc(-c2nnn(C)c2CNC(=O)OCC2CC(F)(F)C2)ccc1O[C@H]1CCC[C@H](C(=O)O)C1 [Example 182, (1S,3S)-3-((6-(5-(((((3,3-difluoro-cyclobutyl)methoxy)carbonyl)amino)methyl)-1-methyl-1H-1,2,3-triazol-4-yl)-2-methylpyridin-3-yl)oxy)cyclohexane-1-carboxylic acid] | 85
